Experimental data published in article PMC11528023, “Transport mechanism and structural pharmacology of human urate transporter URAT1” (Cell Research, 2024).
Positions count from the first letter of the chain named.

Assays:
URAT1 = biological target: T1, URAT1 (Homo sapiens, UniProt Q96S37); assay: Effect of reducing anion gradients on 14C-urate uptake; type: cell-based; conditions: 125 mM sodium phosphate in place of sodium gluconate in uptake buffer, Fig. S12b
T1 construct: expressed in transfected cells; host or cells: HEK293 cells (ATCC, CRL-3216), transient transfection with Lipofectamine 3000
T1 sequence (Q96S37 1-553): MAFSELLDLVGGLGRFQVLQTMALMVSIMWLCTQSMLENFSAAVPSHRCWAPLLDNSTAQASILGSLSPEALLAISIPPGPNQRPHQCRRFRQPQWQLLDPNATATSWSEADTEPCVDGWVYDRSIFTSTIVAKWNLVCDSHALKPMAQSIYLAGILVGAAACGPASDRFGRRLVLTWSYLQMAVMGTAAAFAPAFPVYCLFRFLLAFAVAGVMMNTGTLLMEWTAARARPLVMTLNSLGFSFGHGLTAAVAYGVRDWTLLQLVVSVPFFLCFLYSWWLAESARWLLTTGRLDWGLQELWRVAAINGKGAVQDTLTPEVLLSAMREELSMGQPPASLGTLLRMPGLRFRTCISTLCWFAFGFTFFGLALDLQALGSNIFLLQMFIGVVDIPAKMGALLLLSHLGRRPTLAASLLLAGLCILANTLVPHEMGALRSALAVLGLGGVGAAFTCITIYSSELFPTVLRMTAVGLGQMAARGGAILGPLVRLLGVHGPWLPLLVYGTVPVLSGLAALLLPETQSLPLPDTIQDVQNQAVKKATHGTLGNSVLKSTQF
Method: Human embryonic kidney (HEK) 293 cells (ATCC, CRL-3216) were seeded onto poly(D-lysine)-coated 96-well plates at a density of 0.3 × 10^5 cells per well and cultured at 37 °C until reaching approximately 70%–80% confluence. The cells were transiently transfected with plasmids encoding the URAT1 WT or mutants using Lipofectamine 3000 (Invitrogen, L3000001), following the manufacturer’s protocol. The transfected cells were cultured at 37 °C for 12 h. Following this, 10 mM sodium butyrate was added, and the cells were further incubated at 30 °C for an additional 24 h. The medium was aspirated, and the cells were rinsed once with assay buffer (20 mM HEPES pH 7.4, 125 mM sodium gluconate, 4.8 mM potassium gluconate, 1.2 mM monobasic potassium phosphate, 1.2 mM magnesium sulfate, 1.3 mM calcium gluconate, and 5.6 mM glucose) and then incubated with 400 µM urate consisted of 80 µM ^14C-radiolabeled (50–60 mCi/mmol, 0.5 mCi/mL, American Radiolabeled Chemicals, Inc.) and 320 µM non-radiolabeled in assay buffer at 37 °C for 20 min. In some experiments, 125 mM sodium gluconate was replaced by sodium chloride, sulfate, or phosphate. […] The cells were then lysed in 0.1 M NaOH, and the lysed samples were added to scintillation liquid to measure radioactivity using a PerkinElmer Microbeta2 counter. […]

URAT1EM = biological target: T2, URAT1EM (Homo sapiens, UniProt Q96S37, A280P/A304R/A323S/A335R/D313K/DEL311-312/DEL60-62/G295A/G309E/G331A/G338L/G65T/I63V/INS307H/L287I/L292P/L321M/L328V/L337V/L341F/L64S/M324V/M330S/M343V/P317I/P333E/Q332K/R291K/R301K/R325K/R342C/S329A/T288I/T289K/T314N/T339D/W294Q/W300R); assay: 14C-urate uptake in HEK293 cells expressing URAT1EM (cryo-EM construct); type: cell-based; conditions: read-out: IC50 for URAT1EM
T2 construct: human URAT1 (residues 3–553), a (GGGGS)3 linker, and C-terminal DARPinoff7; expressed in transfected cells; host or cells: HEK293 cells (ATCC, CRL-3216), transient transfection
T2 sequence (Q96S37 with tags, fused parts or gaps DEL60-62/I63V/L64S/G65T/A280P/L287I/T288I/T289K/R291K/L292P/W294Q/G295A/W300R/R301K/A304R/INS307H/G309E/DEL311-312/D313K/T314N/P317I/L321M/A323S/M324V/R325K/L328V/S329A/M330S/G331A/Q332K/P333E/A335R/L337V/G338L/T339D/L341F/R342C/M343V): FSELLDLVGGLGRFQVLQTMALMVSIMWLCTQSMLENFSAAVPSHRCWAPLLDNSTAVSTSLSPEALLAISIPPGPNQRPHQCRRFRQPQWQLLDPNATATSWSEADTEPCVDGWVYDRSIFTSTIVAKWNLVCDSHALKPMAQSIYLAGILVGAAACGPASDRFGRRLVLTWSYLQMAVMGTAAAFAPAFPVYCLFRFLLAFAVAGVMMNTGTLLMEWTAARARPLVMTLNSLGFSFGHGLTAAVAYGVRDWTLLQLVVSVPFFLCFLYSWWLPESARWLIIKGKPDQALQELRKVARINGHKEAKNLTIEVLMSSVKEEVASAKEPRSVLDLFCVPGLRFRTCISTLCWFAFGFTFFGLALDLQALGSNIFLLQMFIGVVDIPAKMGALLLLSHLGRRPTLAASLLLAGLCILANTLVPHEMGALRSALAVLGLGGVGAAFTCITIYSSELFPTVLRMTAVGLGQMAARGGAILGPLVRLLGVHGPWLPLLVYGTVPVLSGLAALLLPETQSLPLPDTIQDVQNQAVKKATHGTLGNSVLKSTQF
Method: (§1) Data are shown as mean ± SD; n = 3 biological replicates. In a, b, uptake buffer: 20 mM HEPES pH 7.4, 125 mM sodium gluconate, 4.8 mM potassium gluconate, 1.2 mM monobasic potassium phosphate, 1.2 mM magnesium sulfate, 1.3 mM calcium gluconate, and 5.6 mM glucose. c Cryo-EM density maps of URAT1 in the apo and substrate-bound states. […] Putative lipid densities are in light cyan. d Cryo-EM density maps of URAT1 in the drug-bound states. […] Putative lipid densities are in light cyan. e Diagram of URAT1 topology. ECD, extracellular domain. f Structure of URAT1 in the apo state. g Slice view of URAT1 in the apo state, showing the central cavity and opening to the intracellular side.
(§2) Human embryonic kidney (HEK) 293 cells (ATCC, CRL-3216) were seeded onto poly(D-lysine)-coated 96-well plates at a density of 0.3 × 10^5 cells per well and cultured at 37 °C until reaching approximately 70%–80% confluence. The cells were transiently transfected with plasmids encoding the URAT1 WT or mutants using Lipofectamine 3000 (Invitrogen, L3000001), following the manufacturer’s protocol. The transfected cells were cultured at 37 °C for 12 h. Following this, 10 mM sodium butyrate was added, and the cells were further incubated at 30 °C for an additional 24 h. […]

URAT1WT [1] = biological target: T3, URAT1WT (Homo sapiens, UniProt Q96S37); assay: 14C-urate uptake inhibition in HEK293 cells expressing WT URAT1; type: cell-based
T3 construct: expressed in transfected cells; host or cells: HEK293 cells (ATCC, CRL-3216), transient transfection with Lipofectamine 3000
T3 sequence (Q96S37 1-553): T1 sequence (Q96S37 1-553)
Method: as §1, §2

[2] = biological target: human URAT1 tagged with MBP and DARPin, with part of the intracellular loop (residues 280-343) replaced by OAT4 residues 277-339 (human) (UniProt Q96S37); assay: cryo-EM particle images; purified protein at the high concentration used to prepare cryo-EM grids; particles seen on the grids (Supplementary Fig. S1b)
URAT1 Q473E = biological target: T4, URAT1 Q473E (Homo sapiens, UniProt Q96S37, Q473E); assay: Anion preloading 14C-urate uptake assay, URAT1 Q473E; type: cell-based; conditions: Fig. 4e, f; Site 1 mutant
T4 construct: expressed in transfected cells; host or cells: HEK293 cells (ATCC, CRL-3216), transient transfection
T4 sequence (Q96S37 1-553 Q473E): T1 sequence (Q96S37 1-553) with Q473E

URAT1WT [3] = biological target: T3, URAT1WT; assay: Anion preloading 14C-urate uptake assay, WT URAT1; type: cell-based; conditions: Fig. 4e, f, NaCl uptake buffer

## phosphate
URAT1
  Impact on URAT1 function (14C-urate uptake): minimal impact

## CC(C)(Sc1ccncc1-c1ccc(C#N)c2ccccc12)C(=O)O [verinurad]
URAT1EM
  IC50: 63 nM
URAT1WT [1]
  IC50: 53 nM

## human URAT1 tagged with MBP and DARPin, with part of the intracellular loop (residues 280-343) replaced by OAT4 residues 277-339 (from UniProt Q96S37 1-279; Q9NSA0 277-339; Q96S37 344-553)
[2]
  stoichiometry N: 2

## O=C(O)c1cnccn1 [Pyrazinoate, pyrazinoate]
URAT1 Q473E
  Potentiation in urate uptake by anion preloading (fold change), Q473E: 1.2 fold
URAT1WT [3]
  Potentiation in urate uptake by anion preloading (fold change), WT: 3.5 fold
